What was measured:
Assay type in all cases: physicochemical
[1] = Polymorph screening (stability of solid forms); settings: for Relative stability of solid form in polymorph screening: under the conditions tested in this study
Method: Form B was obtained from anti-solvent addition experiment with ACN/water from Form A. Form B was observed only as a wet cake, which convers back to Form A when air-dried. The XRPD, TGA/DSC, and PLM characterizations with the same parameters described above were performed. […] (FIG. 5). The weight loss started immediately with heat applied and it stopped 75° C.
(§1) The approximate solubility of compound of Formula I (starting material, prepared as described above) was measured at RT in 20 different solvents. Approximately 2 mg of starting material were added into a 3-mL glass vial. Solvents were then added step wise into the vials until the solids were dissolved or a total volume of 1 mL was reached (Note: this is not thermodynamic solubility estimation, vortex and sonication were applied in between each solvent to accelerate the dissolution). Results summarized in Table 3-1 were used to guide the solvent selection for the polymorph screening. Beginning with the starting material, polymorph screening experiments were set up using methods of Slurry at different temperatures, Slow Cooling, Liquid and Solid Vapor Diffusion, Slow Evaporation, Anti-Solvent Addition and Ionic Liquid. The methods utilized, and crystal forms identified are summarized in Table 3-2 (Type A and Form A are used interchangeably and Type B and Form B are used interchangeably).
As described above, polymorph screening experiments were set up using methods of Slurry at different temperatures, Slow Cooling, Liquid and Solid Vapor Diffusion, Slow Evaporation, Anti-Solvent Addition, and Ionic Liquid. Two types, Form A (anhydrate) and Form B (weak solvate) were obtained from the experiments.
Further investigation was performed for Form B to better understand the phase origin.
Other than Form B (i.e., Type B), no additional polymorph was observed during the rest of the screening. […]
The approximate solubility of compound of Formula II (starting material) was determined at RT in 20 different solvents. […]
The molecular structure was determined by single crystal X-ray diffraction.

[2] = Approximate solubility of starting material at RT in 20 solvents
Method: as §1
The approximate solubility of compound of Formula II (starting material) was determined at RT in 20 different solvents. Approximately 2 mg of the material were added into a 2-mL glass vial. Solvents were then added step into the vials until the solids were dissolved or a total volume of 1 mL was reached (Note: this is not a thermodynamic solubility estimation; vortex and sonication were applied in between each solvent addition to accelerate the dissolution). Results summarized in Table 5-1 were used to guide the solvent selection for the polymorph screening. Beginning with the starting material, polymorph screening experiments were set up using methods of Slurry at different temperatures, Slow Cooling, Liquid and Solid Vapor Diffusions, Slow Evaporation, Anti-Solvent Addition, and Ionic Liquid. No new polymorphs were observed during the screening. Type X and Form X are used interchangeably.

[3] = Long-term stability study of compound of Formula I, 25° C./60% RH
Method: Long-term and accelerated stability studies were performed as below using the compound of Formula I prepared as described in Example 2.1.
Tests include appearance, purity by HPLC, assay by HPLC, chiral purity by HPLC, and water by KF titration. […]

[4] = DVS test of compound of Formula I
[5] = Heat and light stressed stability of compound of Formula I in 95/5 (v/v) acetonitrile/isopropanol solution; settings: for Purity, Chemical / Purity, Chiral: solution
Method: In addition, the stressed stability in 95/5 (v/v) acetonitrile /isopropanol solutions was also evaluated (e.g., during the SMB separation and successive work-up). Samples were stored under two different conditions over a period of 10 days: exposed to light at room temperature and in an oven at 60° C.

[6] = Characterization of anhydrate Form II of compound of Formula III
Method: Anhydrate Form II of compound of Formula III was characterized by XRPD, TGA, DSC and HPLC. As shown in XRPD result (FIG. 11), the sample was crystalline and conformed to Form II. Its HPLC purity was determined to be 99.78 area %. […] (onset temperature) in DSC were observed. […] Form II is the stable form of compound of Formula III.

[7] = Wet cake drying study on compound of Formula II
Method: The wet cake drying study on compound of Formula II was carried out on a sample (98.67% purity of compound of Formula II) in an open dish held at 40° C. under vacuum. The sample was analyzed after one week (98.79% purity of compound of Formula II) and since the sample was stable, the study was extended another month. […] (98.74% purity of compound of Formula II).

[8] = organic solvent or mixture, ACN
[9] = organic solvent or mixture, Acetone
[10] = organic solvent or mixture, Cyclohexane
[11] = organic solvent or mixture, DCM
[12] = organic solvent or mixture, DMF
[13] = organic solvent or mixture, DMSO
[14] = organic solvent or mixture, EtOAc
[15] = organic solvent or mixture, EtOH
[16] = organic solvent or mixture, IPA
[17] = organic solvent or mixture, IPAc
[18] = organic solvent or mixture, MIBK
[19] = organic solvent or mixture, MTBE
[20] = organic solvent or mixture, MeOH
[21] = organic solvent or mixture, MeTHF
[22] = organic solvent or mixture, NMP
[23] = organic solvent or mixture, Pentane
[24] = organic solvent or mixture, Toluene
[25] = organic solvent or mixture, n-Butyl Acetate
[26] = organic solvent or mixture, n-Heptane

CCCCC1(CCCC)CS(=O)(=O)c2ccc(N(C)C)cc2[C@@H](c2ccc(OC)cc2)[C@H]1O [Form B, (4R,5R)-3,3-dibutyl-7-(dimethylamino)-4-hydroxy-5-(4-methoxyphenyl)-2,3,4,5-tetrahydrobenzo[b]thiepine 1,1-dioxide]
Solid form after air-drying of the wet cake (XRPD) ([1]; air-dried overnight): converted back to Form A

CCCCC1(CCCC)CS(=O)(=O)c2ccc(N(C)C)cc2[C@@H](c2ccc(O)cc2)[C@H]1O [Form X, (4R,5R)-3,3-dibutyl-7-(dimethylamino)-4-hydroxy-5-(4-hydroxyphenyl)-2,3,4,5-tetrahydrobenzo[b]thiepine 1,1-dioxide]
Relative stability of solid form in polymorph screening [1]: most stable form

CCCCC1(CCCC)CS(=O)(=O)c2ccc(N(C)C)cc2[C@@H](c2ccc(OC)cc2)[C@H]1O [Formula I, (4R,5R)-3,3-dibutyl-7-(dimethylamino)-4-hydroxy-5-(4-methoxyphenyl)-2,3,4,5-tetrahydrobenzo[b]thiepine 1,1-dioxide]
solubility [2, 8]: > 44 mg/mL
solubility [2, 9]: > 54 mg/mL
solubility [2, 10]: < 2 mg/mL
solubility [2, 11]: > 58 mg/mL
solubility [2, 12]: > 48 mg/mL
solubility [2, 13]: > 50 mg/mL
solubility [2, 14]: > 40 mg/mL
solubility [2, 15]: 27 to 54 mg/mL
solubility [2, 16]: 7.3 to 22 mg/mL
solubility [2, 17]: 24 to 48 mg/mL
solubility [2, 18]: > 50 mg/mL
solubility [2, 19]: 9.3 to 28 mg/mL
solubility [2, 20]: 29 to 58 mg/mL
solubility [2, 21]: > 56 mg/mL
solubility [2, 22]: > 46 mg/mL
solubility [2, 23]: < 2.7 mg/mL
solubility [2, 24]: > 54 mg/mL
solubility [2, 25]: > 56 mg/mL
solubility [2, 26]: < 2.8 mg/mL
solubility ([2]; water, H2O): < 2.3 mg/mL
Appearance (Color, morphology) ([3]; 0 months): Off-white
HPLC Assay ([3]; 0 months): 95.5% w/w
HPLC Purity ([3]; 0 months): 99.6% a/a
HPLC Purity - Chiral ([3]; 0 months): 100.0% a/a
Water by KF Titration ([3]; 0 months): <0.1% w/w
Appearance (Color, morphology) ([3]; 3 months): Off-white
HPLC Assay ([3]; 3 months): 96.3% w/w
HPLC Purity ([3]; 3 months): 99.9% a/a
HPLC Purity - Chiral ([3]; 3 months): 100.0% a/a
Water by KF Titration ([3]; 3 months): <0.1% w/w
Appearance (Color, morphology) ([3]; 6 months): Off-white
HPLC Assay ([3]; 6 months): 96.4% w/w
HPLC Purity ([3]; 6 months): 99.8% a/a
HPLC Purity - Chiral ([3]; 6 months): 100.0% a/a
Water by KF Titration ([3]; 6 months): <0.1% w/w
Appearance (Color, morphology) ([3]; 12 months): Off-white
HPLC Assay ([3]; 12 months): 96.5% w/w
HPLC Purity ([3]; 12 months): 99.8% a/a
HPLC Purity - Chiral ([3]; 12 months): 100.0% a/a
Water by KF Titration ([3]; 12 months): <0.1% w/w
Form transition before and after DVS test [4]: no form transition observed
Hygroscopicity by DVS [4]: Non-hygroscopic
Stability (chemical and chiral purity) for SMB operation and work-up ([5]; 95/5 (v/v) acetonitrile/isopropanol, 10 days, light at RT or 60° C.): adequate stability
Purity, Chemical ([5]; RT (light), Day 0): 99.4 % a/a
Purity, Chiral ([5]; RT (light), Day 0): 99.6 % a/a
Purity, Chemical ([5]; RT (light), Day 3): 99.4 % a/a
Purity, Chiral ([5]; RT (light), Day 3): 99.6 % a/a
Purity, Chemical ([5]; RT (light), Day 7): 99.4 % a/a
Purity, Chiral ([5]; RT (light), Day 7): 99.7 % a/a
Purity, Chemical ([5]; RT (light), Day 10): 99.4 % a/a
Purity, Chiral ([5]; RT (light), Day 10): 99.4 % a/a
Purity, Chemical ([5]; T = 60° C., Day 0): 99.3 % a/a
Purity, Chiral ([5]; T = 60° C., Day 0): 99.7 % a/a
Purity, Chemical ([5]; T = 60° C., Day 3): 98.7 % a/a
Purity, Chiral ([5]; T = 60° C., Day 3): 99.5 % a/a
Purity, Chemical ([5]; T = 60° C., Day 7): 98.5 % a/a
Purity, Chiral ([5]; T = 60° C., Day 7): 99.8 % a/a
Purity, Chemical ([5]; T = 60° C., Day 10): 98.5 % a/a
Purity, Chiral ([5]; T = 60° C., Day 10): 99.7 % a/a

CCCCC1(CCCC)CS(=O)(=O)c2ccc(N(C)C)cc2[C@@H](c2ccc(OCc3ccc(C[N+]45CCN(CC4)CC5)cc3)cc2)[C@H]1O.[Cl-] [Form II, 1-(4-((4-((4R,5R)-3,3-dibutyl-7-(dimethylamino)-4-hydroxy-1,1-dioxido-2,3,4,5-tetrahydrobenzo[b]thiepin-5-yl)phenoxy)methyl)benzyl)-1,4-diazabicyclo[2.2.2] octan-1-ium chloride]
Stability of solid form [6]: stable form

CCCCC1(CCCC)CS(=O)(=O)c2ccc(N(C)C)cc2[C@@H](c2ccc(OC)cc2)[C@H]1O [Form A, (4R,5R)-3,3-dibutyl-7-(dimethylamino)-4-hydroxy-5-(4-methoxyphenyl)-2,3,4,5-tetrahydrobenzo[b]thiepine 1,1-dioxide]
Relative stability of solid form in polymorph screening [1]: most stable form

CCCCC1(CCCC)CS(=O)(=O)c2ccc(N(C)C)cc2[C@@H](c2ccc(O)cc2)[C@H]1O [Formula II, (4R,5R)-3,3-dibutyl-7-(dimethylamino)-4-hydroxy-5-(4-hydroxyphenyl)-2,3,4,5-tetrahydrobenzo[b]thiepine 1,1-dioxide]
solubility [2, 8]: 2.9 to 9.7 mg/mL
solubility [2, 9]: 26 to 52 mg/mL
solubility [2, 10]: < 2 mg/mL
solubility [2, 11]: 8.7 to 26 mg/mL
solubility [2, 12]: > 40 mg/mL
solubility [2, 13]: > 44 mg/mL
solubility [2, 14]: 20 to 40 mg/mL
solubility [2, 15]: 2.7 to 9.3 mg/mL
solubility [2, 16]: 2.6 to 8.7 mg/mL
solubility [2, 17]: 7.7 to 23 mg/mL
solubility [2, 18]: 21 to 43 mg/mL
solubility [2, 19]: 2.4 to 8 mg/mL
solubility [2, 20]: 7.3 to 22 mg/mL
solubility [2, 21]: 21 to 42 mg/mL
solubility [2, 22]: > 44 mg/mL
solubility [2, 23]: < 2.7 mg/mL
solubility [2, 24]: < 2.8 mg/mL
solubility [2, 25]: 8.3 to 25 mg/mL
solubility [2, 26]: < 2 mg/mL
solubility ([2]; water, H2O): < 2 mg/mL
Purity of compound of Formula II ([7]; open dish, 40° C. under vacuum, after one week): 98.79%
Purity of compound of Formula II ([7]; open dish, 40° C. under vacuum, study extended another month): 98.74%
Hold time of the solid ([7]; under vacuum at 40° C.): at least a month
Purity of compound of Formula II ([7]; wet cake sample at start of study): 98.67%
